Data reported in the RepoRT retention time repository.

Test: Waters ACQUITY UPLC BEH C18, 50 × 2.1 mm, 1.7 µm, 30 °C, 0.3 mL/min, estimated dead time 0.37 min; A: water + 0.3% formic acid; B: acetonitrile; gradient (min/%B) 0.5/5 3.5/20 5.5/25 7/57 8/90
Settings: stereoisomer not certain

- LC retention time: 2.81 min
SMILES: CC(C)(C)NCC(O)COc1cccc2c1CC(O)C(O)C2 (stereo unspecified)
